Patent US10632195B2, “Pharmaceutical device for electric-field assisted administration of Tapentadol and method of administering Tapentadol with same” (Gruenenthal GmbH, priority 2012, dated 2020)
Where “and” joins values, the source holds several entries; their conditions need not be identical. Equal entries are not always repeated. Structures can show the parent of a compound that is named as a salt.

Assay: passive transdermal delivery of Tapentadol hydrochloride, 24 hours, no current (comparative example 1b, passive control)
Type: in vitro ADME, pig
Settings: for cumulative, passive delivery across the skin, Mean / cumulative, passive delivery across the skin, as tapentadol base, Mean / drug flux across the skin, Mean / drug flux across the skin, as tapentadol base, Mean: n=2; for cumulative, passive delivery across the skin, Mean / cumulative, passive delivery across the skin, as tapentadol base, Mean / drug flux across the skin, Mean / drug flux across the skin, as tapentadol base, Mean / drug flux across the skin / cumulative, passive delivery across the skin: patch area 0.64 cm^2; for drug flux across the skin, Mean / drug flux across the skin, as tapentadol base, Mean / drug flux across the skin: passive, no current; for drug flux across the skin / cumulative, passive delivery across the skin: single cells 1-2
Description: For comparison, the rate of transdermal delivery of Tapentadol hydrochloride for a period of 24 hours has been determined without any means of electric-field-assisted administration (passive control).
The flux of Tapentadol hydrochloride from passive diffusion alone was measured (n=2). The experimental set-up was exactly as previously described, except that no electrodes were placed in the diffusion cell and no current was applied. The temperature was held at 37° C. The receptor solution was sampled and assayed at 0.5, 1, 1.5, 2, 3, 4, 5, 6, 7, 8 and 24 hours. 1 ml of receptor solution was removed and replaced with fresh PBS at each sampling point.

CC[C@@H](c1cccc(O)c1)[C@@H](C)CN(C)C [Tapentadol hydrochloride]
cumulative, passive delivery across the skin, Mean (0.5 h): 0 µg | cumulative, passive delivery across the skin, as tapentadol base, Mean (0.5 h): 0 µg | drug flux across the skin, Mean (0.5 h): 0 µg/h | drug flux across the skin, as tapentadol base, Mean (0.5 h): 0 µg/h | drug flux across the skin (0.5 h): 0 µg/h | cumulative, passive delivery across the skin (0.5 h): 0 µg | cumulative, passive delivery across the skin, Mean (1 h): 0 µg | cumulative, passive delivery across the skin, as tapentadol base, Mean (1 h): 0 µg | drug flux across the skin, Mean (1 h): 0 µg/h | drug flux across the skin, as tapentadol base, Mean (1 h): 0 µg/h | drug flux across the skin (1 h): 0 µg/h | cumulative, passive delivery across the skin (1 h): 0 µg | cumulative, passive delivery across the skin, Mean (1.5 h): 0 µg | cumulative, passive delivery across the skin, as tapentadol base, Mean (1.5 h): 0 µg | drug flux across the skin, Mean (1.5 h): 0 µg/h | drug flux across the skin, as tapentadol base, Mean (1.5 h): 0 µg/h | drug flux across the skin (1.5 h): 0 µg/h | cumulative, passive delivery across the skin (1.5 h): 0 µg | cumulative, passive delivery across the skin, Mean (2 h): 0 µg | cumulative, passive delivery across the skin, as tapentadol base, Mean (2 h): 0 µg | drug flux across the skin, Mean (2 h): 0 µg/h | drug flux across the skin, as tapentadol base, Mean (2 h): 0 µg/h | drug flux across the skin (2 h): 0 µg/h | cumulative, passive delivery across the skin (2 h): 0 µg | cumulative, passive delivery across the skin, Mean (3 h): 2 µg | cumulative, passive delivery across the skin, as tapentadol base, Mean (3 h): 1 µg | drug flux across the skin, Mean (3 h): 1 µg/h | drug flux across the skin, as tapentadol base, Mean (3 h): 1 µg/h | drug flux across the skin (3 h): 1 µg/h | cumulative, passive delivery across the skin (3 h, listed as Tapentadol HCl, hydrochloride): 2 µg and 1 µg | cumulative, passive delivery across the skin, Mean (4 h): 4 µg | cumulative, passive delivery across the skin, as tapentadol base, Mean (4 h): 3 µg | drug flux across the skin, Mean (4 h): 2 µg/h | drug flux across the skin, as tapentadol base, Mean (4 h): 2 µg/h | drug flux across the skin (4 h): 2 µg/h | cumulative, passive delivery across the skin (4 h, listed as Tapentadol HCl, hydrochloride): 4 µg and 3 µg | cumulative, passive delivery across the skin, Mean (5 h): 6 µg | cumulative, passive delivery across the skin, as tapentadol base, Mean (5 h): 5 µg | drug flux across the skin, Mean (5 h): 3 µg/h | drug flux across the skin, as tapentadol base, Mean (5 h): 2 µg/h | drug flux across the skin (5 h, hydrochloride): 3 µg/h and 2 µg/h | cumulative, passive delivery across the skin (5 h, listed as Tapentadol HCl, hydrochloride): 7 µg and 5 µg | cumulative, passive delivery across the skin, Mean (6 h): 9 µg | cumulative, passive delivery across the skin, as tapentadol base, Mean (6 h): 8 µg | drug flux across the skin, Mean (6 h): 3 µg/h | drug flux across the skin, as tapentadol base, Mean (6 h): 3 µg/h | drug flux across the skin (6 h, hydrochloride): 4 µg/h and 3 µg/h | cumulative, passive delivery across the skin (6 h, listed as Tapentadol HCl, hydrochloride): 11 µg and 8 µg | cumulative, passive delivery across the skin, Mean (7 h): 13 µg | cumulative, passive delivery across the skin, as tapentadol base, Mean (7 h): 11 µg | drug flux across the skin, Mean (7 h): 3 µg/h | drug flux across the skin, as tapentadol base, Mean (7 h): 3 µg/h | drug flux across the skin (7 h, hydrochloride): 4 µg/h and 3 µg/h | cumulative, passive delivery across the skin (7 h, listed as Tapentadol HCl, hydrochloride): 14 µg and 11 µg | cumulative, passive delivery across the skin, Mean (8 h): 18 µg | cumulative, passive delivery across the skin, as tapentadol base, Mean (8 h): 15 µg | drug flux across the skin, Mean (8 h): 5 µg/h | drug flux across the skin, as tapentadol base, Mean (8 h): 4 µg/h | drug flux across the skin (8 h, hydrochloride): 5 µg/h and 4 µg/h | cumulative, passive delivery across the skin (8 h, listed as Tapentadol HCl, hydrochloride): 20 µg and 15 µg | cumulative, passive delivery across the skin, Mean (24 h): 186 µg | cumulative, passive delivery across the skin, as tapentadol base, Mean (24 h): 159 µg | drug flux across the skin, Mean (24 h): 11 µg/h | drug flux across the skin, as tapentadol base, Mean (24 h): 9 µg/h | drug flux across the skin (24 h, hydrochloride): 11 µg/h and 10 µg/h | cumulative, passive delivery across the skin (24 h, listed as Tapentadol HCl, hydrochloride): 192 µg and 179 µg | rate of passive diffusion (by 24 hours): 16 μg/h/cm2 | time within which steady state flux was not reached (comparative example 1b, passive diffusion): > 8 h
